Experimental data reported in patent US20040053896A1, “Pharmaceutically active compound” (priority 2000, published 2004).
Like-named read-outs stand apart in the source and are kept apart here.

Columns and labels:
rat hepatocytes = test: Cytotoxicity assay, chromium-51 leakage from monolayer cultures; assay type: cell-based; details: rat hepatocyte monolayers, 0.012M test material, mean +/- SD, n=5; control 37.61+/-1.56%
Procedure: Activities of supernatants and cells were measured. Chromium-51 leakage is expressed as a percentage of the total activity (medium+cells). Values are mean +/− SD [n=5]. *=P<0.001 CL(CBZ)/CL(CBZ)-Dox and a control (no material added after incubation with chromium-51).

HepG2 cells = test: In vitro toxicity test by in situ end labelling (ISEL), % of dead cells; assay type: cell-based; details: 4 h incubation
Procedure: Cholyl-lysyl-doxorubicin (VIII) synthesised as described above was subjected to cytotoxicity tests in comparison with free doxorubicin and free cholate using in situ end labelling which enables semi-quantitative measure of apoptosis and necrosis.
HepG2 cells (Cobra American Type Culture Collection) in 24 well plates were used. Doxorubicin, cholate or cholyllysyldoxorubicin (in various amounts up to 0.86 μM) was added in triplicate and incubated for 4 h. The cells were trypsinized off from the well plates, cytospun, and then frozen.
In order to measure cell viability, sections were warmed up to room temperature for 30 minutes, then fixed in acetone for 10 minutes, and then wax was introduced around cells.
An in situ end labelling (ISEL) positive mixture was made up which included buffer (1 ml), dATP (1 μl), dCTP (1 μl), dGTP (1 μl), DiglldUTP (1 μl) and Klenow DNA polymerase (4 μl), and an in situ end labelling negative mixture of buffer (1 ml), dATP (1 μl), dCTP (1 μl), dGTP (1 μl), Digll, 2dUTP and water. (4 μl) was also made up. To each cytospin and coverslip was added 60 μl of the ISEL positive mixture or negative mixture. These were then floated in a water bath at 37° C. for 1 h. The coverslips were then removed and washed 3×5 mins in distilled water, followed by washing in TBS pH 7.5 for 5 mins. Anti digoxigen Alkaline phosphatase diluted 1:200 TBS was added and incubated for 1 h at room temperature and then washed in TBS pH 7.5 for 2.5 mins, followed by further washing in TBS pH 8.2 for another 2.5 mins. A substrate mixture was then made up to include naphthol phosphate (10 mg), NN-dimethylformamide (1 ml), Tris pH 8.2 (49) IM Levamasole (50 μl) and Fast blue (50 mg).
The substrate mixture was added to each cytospin and allowed to develop for 15 mins followed by washing in distilled water and then mounted.

[1] = tested on: 12 human tumour cell lines; test: Antiproliferative activity in vitro, propidium iodide DNA content; assay type: cell-based; details: for mean IC70: mean over 12 human tumour cell lines, 4 days continuous exposure
Procedure: Cholyl-lysyl-doxorubicin (VIII) was investigated for antiproliferative activity in vitro in 12 human tumour cell lines (including the large cell lung carcinoma H460, the mammary carcinoma cell line MCF7, the uterus carcinoma cell line UXF 1138L and the large cell lung carcinoma LXFL 529L), and was compared to free doxorubicin and cholic acid as controls. 5-20.000 cells/well were plated into 96 wells. After 24 hours, the compounds were added in dose levels ranging from 3 nM to 30 μM (cholyl-lysyl-doxorubicin and cholic acid) and from 0.3 nM to 3 μM (doxorubicin), respectively.

[2] = for Cumulative biliary excretion, Mean % Dose: Wistar rats; for Biliary excretion, mean % of radioactivity in the dose administered: bolus via jugular vein, 14C-Dox 1 mg/300 μl or 14C-Cpd VIII 2 mg/300 μl, n=6
Solubility in solvents = assay type: physicochemical
[3] = Percentage of dose in liver, heart, urine and blood at 60 min
Procedure: Further tests were performed to estimate the percentage of the dose of the compounds being tested in the liver, heart, urine and blood of Wistar rats.

[4] = Wistar rats, 60 min after injection

Row | SMILES | Chromium-51 leakage as a percentage of the total activity (medium+cells) (rat hepatocytes) | Mean % of dead cells (HepG2 cells; 0.03 μM) | Mean % of dead cells (HepG2 cells; 0.06 μM) | Mean % of dead cells (HepG2 cells; 0.12 μM) | Mean % of dead cells (HepG2 cells; 0.86 μM) | Cumulative biliary excretion, Mean % Dose ([2]; cumulative to 0 min) | Cumulative biliary excretion, Mean % Dose ([2]; cumulative to 10 min) | Cumulative biliary excretion, Mean % Dose ([2]; cumulative to 20 min) | Cumulative biliary excretion, Mean % Dose ([2]; cumulative to 30 min) | Cumulative biliary excretion, Mean % Dose ([2]; cumulative to 40 min) | Cumulative biliary excretion, Mean % Dose ([2]; cumulative to 50 min) | Cumulative biliary excretion, Mean % Dose ([2]; cumulative to 60 min) | Biliary excretion, mean % of radioactivity in the dose administered ([2]; bile aliquot at 10 min) | Biliary excretion, mean % of radioactivity in the dose administered ([2]; bile aliquot at 20 min) | Biliary excretion, mean % of radioactivity in the dose administered ([2]; bile aliquot at 30 min) | Biliary excretion, mean % of radioactivity in the dose administered ([2]; bile aliquot at 40 min) | Biliary excretion, mean % of radioactivity in the dose administered ([2]; bile aliquot at 50 min) | Biliary excretion, mean % of radioactivity in the dose administered ([2]; bile aliquot at 60 min) | Biliary excretion, mean % of radioactivity in the dose administered ([2]; time 0 min) | Mean % of dead cells (HepG2 cells; 0.45 μM) | also measured
1 | CC(CCC(=O)NC(CCCCNC(=O)OCc1ccccc1)C(=O)O)C1CCC2C3C(O)CC4CC(O)CCC4(C)C3CC(O)C12C (centres unmarked) [CL(CBZ), Cholyllsine-N-ε-CBZ] | 49.01+/−2.57% | – | – | – | – | – | – | – | – | – | – | – | – | – | – | – | – | – | – | – | –
2 | COc1cccc2c1C(=O)c1c(O)c3c(c(O)c1C2=O)CC(O)(C(=O)CO)CC3OC1CC(NC(=O)C(CCCCNC(=O)OCc2ccccc2)NC(=O)CCC(C)C2CCC3C4C(O)CC5CC(O)CCC5(C)C4CC(O)C23C)C(O)C(C)O1 (centres unmarked) [CL(CBZ)-Dox, CholyllysylCBZDoxorubicin] | 36.45+/−3.77% | – | – | – | – | – | – | – | – | – | – | – | – | – | – | – | – | – | – | – | –
3 | C[C@H](CCC(=O)O)[C@H]1CC[C@H]2[C@@H]3[C@H](O)C[C@@H]4C[C@H](O)CC[C@]4(C)[C@H]3C[C@H](O)[C@]12C [Cholate, cholic acid] | – | 1% | 0% | 1.8% | 1% | – | – | – | – | – | – | – | – | – | – | – | – | – | – | – | antitumour activity in vitro ([1]; 12 human tumour cell lines, 3 nM to 30 μM, 4 days exposure): no antitumour activity
4 | COc1cccc2c1C(=O)c1c(O)c3c(c(O)c1C2=O)C[C@@](O)(C(=O)CO)C[C@@H]3O[C@H]1C[C@H](NC(=O)[C@H](CCCCN)NC(=O)CC[C@@H](C)[C@H]2CC[C@H]3[C@@H]4[C@H](O)C[C@@H]5C[C@H](O)CC[C@]5(C)[C@H]4C[C@H](O)[C@]23C)[C@H](O)[C@H](C)O1 [Compound (VIII), Cholyl-Lysyl-Doxorubicin] | – | 7.6% | 10.8% | 20.5% | 96.6% | 0 % Dose | 41.7 % Dose | 61.7 % Dose | 69.7 % Dose | 75.3 % Dose | 79.3 % Dose | 81.8 % Dose | 41.7% | 20% | 8% | 5.6% | 4% | 2.5% | 0% | 49% | Mean % of dead cells (HepG2 cells; 0.00 μM): 3.3%; Solubility in non-polar solvents (Solubility in solvents; non-polar solvents such as ethoxyethane): insoluble; Solubility in water, methanol and ethanol (Solubility in solvents; water, methanol and ethanol): soluble; mean IC70 [1]: 1300 nM; Percentage of dose at 60 min, Mean % dose, Blood ([3]; Wistar rats, blood, 60 min after injection): 8.9 % dose; Percentage of dose at 60 min, Mean % dose, Heart ([3]; Wistar rats, heart, 60 min after injection): 0 % dose; Percentage of dose at 60 min, Mean % dose, Liver ([3]; Wistar rats, liver, 60 min after injection): 14.7 % dose; Percentage of dose at 60 min, Mean % dose, Total ([3]; Wistar rats, sum of liver, heart, urine and blood, 60 min): 25.8 % dose; Percentage of dose at 60 min, Mean % dose, Urine [3, 4]: 2.2 % dose
5 | COc1cccc2c1C(=O)c1c(O)c3c(c(O)c1C2=O)C[C@@](O)(C(=O)CO)C[C@@H]3O[C@H]1C[C@H](N)[C@H](O)[C@H](C)O1 [Doxorubicin, doxorubicin] | – | 9.4% | 14.9% | 28.9% | 100% | 0 % Dose | 2.3 % Dose | 7 % Dose | 9.6 % Dose | 11.7 % Dose | 12.7 % Dose | 13.5 % Dose | 2.3% | 4.7% | 2.6% | 2.4% | 1% | 0.8% | 0% | 50% | mean IC70 [1]: 700 nM; Percentage of dose at 60 min, Mean % dose, Urine [3, 4]: 4 % dose; Percentage of dose at 60 min, Mean % dose, Blood ([3]; Wistar, rat, in vivo, 60 min): 74.7 % dose; Percentage of dose at 60 min, Mean % dose, Heart ([3]; Wistar, rat, in vivo, 60 min): 10.8 % dose; Percentage of dose at 60 min, Mean % dose, Liver ([3]; Wistar, rat, in vivo, 60 min): 1.9 % dose
